Source: patent US20150305333A1, “USE OF GLUCOSAMINE AMIDES AS PLANT GROWTH AND YIELD ENHANCERS” (PIONEER HI-BRED INTERNATIONAL, INC., priority 2012, published 2015)

System: corn seeds
Experiment: Petri dish seed germination assay, corn
Format: in vivo
Procedure: A series of Petri dish seed assays was conducted to evaluate the effects NPG on the seed germination rates of corn, soybean, and canola seeds subjected to cold stress, salt stress and non-stressed conditions (salt stress only for canola). Assays were performed with ten replications of ten seeds/plate (100 total seeds). NPG was applied to seeds at the specified concentrations prior to being placed in Petri plates. Seeds designated for Salt Stress Experiments 1 & 2 were placed in Petri dishes containing a 100 mM NaCl solution and incubated at 21° C.-22° C. in the dark. Cold stress Petri dishes were incubated at 15° C. in the dark. Untreated Controls were incubated at 21° C.-22° C. in the dark as were seeds utilized in the separately conducted non-stressed germination assays. Data was recorded as percent germination at designated times after plating. Statistical analyses were performed using one-way Anova and Kruskal-Wallis one-way analysis of variance on rank combined with Dunn's all pairwise multiple comparison procedure (α=0.05).

Substance: Methyl 2-deoxy-2-N-(hexadece-9,10-cis-eneoyl)-β-D-glucopyranoside [NPG]
- Corn Seed Germination (Salt Stress (100 mM NaCl) Experiment 1, 10^−6M, 30 HAP): 34a %
- Corn Seed Germination (Salt Stress (100 mM NaCl) Experiment 1, 10^−6M, 40 HAP): 83a %
- Corn Seed Germination (Salt Stress (100 mM NaCl) Experiment 1, 10^−6M, 48 HAP): 96a %
- Corn Seed Germination (Salt Stress (100 mM NaCl) Experiment 1, 10^−7M, 30 HAP): 23a %
- Corn Seed Germination (Salt Stress (100 mM NaCl) Experiment 1, 10^−7M, 40 HAP): 68a %
- Corn Seed Germination (Salt Stress (100 mM NaCl) Experiment 1, 10^−7M, 48 HAP): 91a %
